Where “and” joins values, the source holds several entries; their conditions need not be identical. Equal values may be shown once. Marks after values point to notes of the source that are not given here.
Key:
[1] = Hepatocyte stability (Example 36), rat; details: rat hepatocytes 1 million cells/mL, 37° C., 4 hours, LC-MS/MS
[2] = Hepatocyte stability (Example 36), human; details: human hepatocytes 1 million cells/mL, 37° C., 4 hours, LC-MS/MS
[3] = test system: human immunodeficiency virus type 1 (HIV-1); assay: microbe, parasite or virus in culture; format: cell-based; details: Human immunodeficiency virus 1, HeLa, 48 h, HIV-1 luciferase reporter, HeLa cells, 48 hours after infection
[4] = Hepatocytes incubation (Method 1), rat; format: in vitro ADME; details: compound 10 μM, 37° C., 2 hrs
Procedure: (§1) Cryopreserved hepatocytes were thawed in a water bath at 37° C. and transferred to a 50-mL tube containing 45 mL of pre-warmed incubation medium (In VitroGRO HT medium). The tube was inverted 3 times to ensure resuspension of hepatocytes and centrifuged at 50 g at room temperature for 5 minutes. The supernatant was decanted without disturbing the pellet. The pellet of hepatocytes was resuspended in 1 mL of William's E medium and the viable cell counting was determined by the tryptan blue exclusion method.
(§2) The William's E medium was added to the suspension of the hepatocytes pellet to make a final density of 2 million cells/mL. Stock solution of the compound was prepared at the concentration of 1 mM and diluted to 10 μM with William's E medium. The culture plate was incubated at 37° C. under 5% carbon dioxide and 95% air atmosphere for 2 hrs. The metabolic reaction was terminated by transferring the contents of the well into a centrifuge tube containing 1 mL of 0.1% TFAA acetonitrile solution and then vortexing. After centrifugation, the supernatant was subjected to 15 minute of concentration (N2 flow, 32° C.). The resulted final extract was transferred to clean vials for HPLC analysis.

[5] = Hepatocytes incubation (Method 1), monkey; format: in vitro ADME; details: compound 10 μM, 37° C., 2 hrs
Procedure: as §1, §2

[6] = Microsomal incubation (Method 1), human; format: in vitro ADME; details: human liver microsomes, compound 10 μM, 1 mg protein/mL, NADPH 1 mM, 60 minutes at 37° C.
Procedure: (§3) Compound (10 μM) was incubated with rat, dog, cynomolgus monkey, and human liver microsomes (1 mg protein/mL) in a final volume of 1 mL in 2-mL Eppendorf tubes. The mixture containing enzymes, potassium phosphate buffer (100 mM, pH 7.4), and the compound was pre-incubated at 37° C. for 3 min. The reaction was initiated by the addition of NADPH (final concentration of 1 mM) and incubated for 60 minutes at 37° C. The reaction was terminated by the addition of 1 mL of acetonitrile. After centrifugation at 12000 rpm for 3 minutes, the supernatant was subjected to 15 minutes of concentration (N2 flow, 32° C.). The resulting final extract was transferred to clean vials and analyzed by HPLC.

[7] = Microsomal incubation (Method 1), rat; format: in vitro ADME; details: rat liver microsomes; compound 10 μM, 1 mg protein/mL, NADPH 1 mM, 60 minutes at 37° C.
Procedure: as §3

[8] = Hepatocytes incubation (Method 1), human; format: in vitro ADME; details: compound 10 μM, 37° C., 2 hrs
Procedure: as §1, §2

[9] = Microsomal incubation (Method 1), dog; format: in vitro ADME; details: dog liver microsomes; compound 10 μM, 1 mg protein/mL, NADPH 1 mM, 60 minutes at 37° C.
Procedure: as §3

[10] = Microsomal incubation (Method 1), monkey; format: in vitro ADME; details: cynomolgus monkey liver microsomes; compound 10 μM, 1 mg protein/mL, NADPH 1 mM, 60 minutes at 37° C.
Procedure: as §3

[11] = CYP3A4 activity 3800 (pmol/mg protein)

With `COc1nc2c(cc1NCc1c(F)cc(F)cc1F)c(=O)c(C(=O)O)cn2[C@H](CO)C(C)C` [Example 20AA, (S)-1-(1-hydroxy-3-methylbutan-2-yl)-7-methoxy-4-oxo-6-(2,4,6-trifluorobenzylamino)-1,4-dihydro-1,8-naphthyridine-3-carboxylic acid] the “% Remaining (rat)” value [1] was 43%, the “% Remaining (human)” value [2] was 75% and the EC50 [3] was under 10 nM.
In the case of `COc1nc2c(cc1Cc1cccc(Cl)c1F)c(=O)c(C(=O)O)cn2[C@H](CO)C(C)C` [Example 1A, 6-(3-Chloro-2-fluoro-benzyl)-1-((S)-1-hydroxymethyl-2-methyl-propyl)-7-methoxy-4-oxo-1,4-dihydro-[1,8]naphthyridine-3-carboxylic acid], the “% Remaining, Rat, Hepatocyte” value [4] is reported as 66.9%, the “% Remaining, Monkey, Hepatocyte” value [5] is reported as 72.3% and the “% Remaining, Human, Microsome” value [6, 11] is reported as 101% and 96.1%. For the same compound, the “% Remaining, Human, Microsome” value ([6]; CYP3A4 activity 7800 (pmol/mg protein)) was 83.5%, the “% Remaining, Rat, Microsome” value [7] was 38.1% and the “% Remaining, Human, Hepatocyte” value [8] was 89.6%. The “% Remaining, Dog, Microsome” value [9] was 102%, the EC50 [3] was under 10 nM and the “% Remaining, Monkey, Microsome” value [10] was 66.3%.
For `COc1nc2c(cc1NCc1c(F)cc(F)cc1F)c(=O)c(C(=O)O)cn2[C@H](CO)C(C)(C)C` [Example 20NN, (S)-1-(1-hydroxy-3,3-dimethylbutan-2-yl)-7-methoxy-4-oxo-6-(2,4,6-trifluorobenzylamino)-1,4-dihydro-1,8-naphthyridine-3-carboxylic acid], the “% Remaining (rat)” value [1] was 46%, the “% Remaining (human)” value [2] was 61% and the EC50 [3] was under 10 nM.
With `Cc1nnc(C(=O)NC(C)(C)c2nc(C(=O)NCc3ccc(F)cc3)c(O)c(=O)n2C)o1` [Raltegravir, raltegravir, reference compound] the “% Remaining, Rat, Hepatocyte” value [4] was 43.3%, the “% Remaining, Monkey, Hepatocyte” value [5] was 20.0% and the “% Remaining, Rat, Microsome” value [7] was 105%. The “% Remaining, Human, Hepatocyte” value [8] was 32.4%, the “% Remaining, Dog, Microsome” value [9] was 91.8% and the “% Remaining, Monkey, Microsome” value [10] was 94.7%.
`COc1nc2c(cc1NCc1c(F)cccc1F)c(=O)c(C(=O)O)cn2[C@H](CO)C(C)C` [Example 20Z, (S)-6-(2,6-difluorobenzylamino)-1-(1-hydroxy-3-methylbutan-2-yl)-7-methoxy-4-oxo-1,4-dihydro-1,8-naphthyridine-3-carboxylic acid] gave an EC50 [3] of 10 to 100 nM.
Compound `COc1nc2c(cc1NCc1cccc(Cl)c1Cl)c(=O)c(C(=O)O)cn2[C@H](CO)C(C)C` [Example 20L, (S)-6-(2,3-dichlorobenzylamino)-1-(1-hydroxy-3-methylbutan-2-yl)-7-methoxy-4-oxo-1,4-dihydro-1,8-naphthyridine-3-carboxylic acid] has an EC50 [3] of over 100 nM.
`CC(C)(C)[C@@H](CO)n1cc(C(=O)O)c(=O)c2cc(NCc3ccc(F)cc3)ccc21` [Example 22B, (S)-6-(4-fluorobenzylamino)-1-(1-hydroxy-3,3-dimethylbutan-2-yl)-4-oxo-1,4-dihydroquinoline-3-carboxylic acid] showed an EC50 [3] of 10 to 100 nM.
With `COCCN1CCN(c2nc3c(cc2Cc2cccc(Cl)c2F)c(=O)c(C(=O)O)cn3[C@H](CO)C(C)(C)C)CC1` [Example 2AA] the EC50 [3] was 10 to 100 nM.
In the case of `COc1nc2c(cc1NCc1ccccc1C(F)(F)F)c(=O)c(C(=O)O)cn2[C@H](CO)C(C)C` [Example 20W, (S)-1-(1-hydroxy-3-methylbutan-2-yl)-7-methoxy-4-oxo-6-(2-(trifluoromethyl)benzylamino)-1,4-dihydro-1,8-naphthyridine-3-carboxylic acid], the EC50 [3] is reported as over 100 nM.
Compound `CCOc1nc2c(cc1Cc1cccc(Cl)c1F)c(=O)c(C(=O)O)cn2[C@H](CO)C(C)(C)C` [Example 2C] has an EC50 [3] of under 10 nM.
Compound `O=C(O)c1cn(C(CO)CO)c2cnc(Cc3cccc(Cl)c3F)cc2c1=O` [Example 5L] has an EC50 [3] of over 100 nM.
In the case of `COc1nc2c(cc1Cc1cccc(Cl)c1F)c(=O)c(C(=O)NCCO)cn2[C@H](CO)C(C)C` [Example 2II], the EC50 [3] is reported as over 100 nM.
Compound `COc1cc2c(cc1NCc1c(F)cccc1F)c(=O)c(C(=O)O)cn2[C@H](CO)C(C)C` [Example 21C, (S)-6-(2,6-difluorobenzylamino)-1-(1-hydroxy-3-methylbutan-2-yl)-7-methoxy-4-oxo-1,4-dihydroquinoline-3-carboxylic acid] has an EC50 [3] of 10 to 100 nM.
Compound `COc1nc2c(cc1-c1ccc(OCc3ccccc3)c(F)c1)c(=O)c(C(=O)O)cn2[C@H](CO)C(C)C` [Example 17J] has an EC50 [3] of over 100 nM.
For `COCCCOc1nc2c(cc1Cc1cccc(Cl)c1F)c(=O)c(C(=O)O)cn2[C@H](CO)C(C)(C)C` [Example 2I], the EC50 [3] was 10 to 100 nM.
For `COc1nc2c(cc1NCc1cccc(F)c1)c(=O)c(C(=O)O)cn2[C@H](CO)C(C)C` [Example 20E, (S)-6-(3-fluorobenzylamino)-1-(1-hydroxy-3-methylbutan-2-yl)-7-methoxy-4-oxo-1,4-dihydro-1,8-naphthyridine-3-carboxylic acid], the EC50 [3] was over 100 nM.
`COc1cc2c(cc1COc1ccc(F)cc1)c(=O)c(C(=O)O)cn2[C@H](CO)C(C)C` [Example 15A, (S)-6-((4-fluorophenoxy)methyl)-1-(1-hydroxy-3-methylbutan-2-yl)-7-methoxy-4-oxo-1,4-dihydroquinoline-3-carboxylic acid] gave an EC50 [3] of over 100 nM.
For `CC(C)(C)[C@@H](CO)n1cc(C(=O)O)c(=O)c2cc(NCc3c(F)cc(F)cc3F)c(Cl)cc21` [Example 26D, (S)-7-chloro-1-(1-hydroxy-3,3-dimethylbutan-2-yl)-4-oxo-6-(2,4,6-trifluorobenzylamino)-1,4-dihydroquinoline-3-carboxylic acid], the EC50 [3] was 10 to 100 nM.
Work on `CC(C)(C)[C@@H](CO)n1cc(C(=O)O)c(=O)c2cc(Cc3cccc(Cl)c3F)c(N3CCN(CCO)CC3)nc21` [Example 2Z] yielded an EC50 [3] of 10 to 100 nM.
Work on `CC(C)[C@@H](CO)n1cc(C(=O)O)c(=O)c2nc(Cc3cccc(Cl)c3F)c(O)nc21` [Example 11A, (S)-2-(3-chloro-2-fluorobenzyl)-3-hydroxy-5-(1-hydroxy-3-methylbutan-2-yl)-8-oxo-5,8-dihydropyrido[2,3-b]pyrazine-7-carboxylic acid] yielded an EC50 [3] of over 100 nM.
With `COc1nc2c(cc1Cc1ccc(F)c(F)c1)c(=O)c(C(=O)O)cn2[C@H](CO)C(C)C` [Example 1B] the EC50 [3] was over 100 nM.
`COc1nc2c(cc1NCc1ccc(F)c(Cl)c1)c(=O)c(C(=O)O)cn2[C@H](CO)C(C)C` [Example 20F, (S)-6-(3-chloro-4-fluorobenzylamino)-1-(1-hydroxy-3-methylbutan-2-yl)-7-methoxy-4-oxo-1,4-dihydro-1,8-naphthyridine-3-carboxylic acid] gave an EC50 [3] of over 100 nM.
In the case of `COc1cc2c(cc1Cc1cccc(Cl)c1F)c(=O)c(C(=O)O)cn2[C@H](CO)C(C)C` [Example 30A, reference compound], the “% Remaining, Human, Microsome” value [6, 11] is reported as 40.5 (3800)* NA %, the “% Remaining, Rat, Microsome” value [7] is reported as 6.7 NA % and the “% Remaining (rat)” value [1] is reported as 29%. The “% Remaining (human)” value [2] was 54%, the “% Remaining, Dog, Microsome” value [9] was 83.8 NA % and the “% Remaining, Monkey, Microsome” value [10] was 4.1 NA %.

Source: patent US20110166123A1, “NOVEL COMPOSITIONS AND METHODS OF USE” (priority 2008, published 2011)
